{"source": "patent US20240261424A1", "about": "“ANTIBODY DRUG CONJUGATE” (NATIONAL CANCER CENTER, priority 2020, published 2024)", "key": {"[1]": {"tested_on": "human pancreatic adenocarcinoma cell line (BxPC-3)", "assay": "Cell-killing effect on BxPC-3", "format": "cell-based", "conditions": "read-out: IC50 values for BxPC-3", "description": "(§1) The ADCs prepared above were evaluated in vitro for their cell-killing effects on human pancreatic adenocarcinoma cells by the following method.\n(§2) RPMI-1640 supplemented with 10% fetal bovine serum and penicillin-streptomycin-[…] (×100) suspension was used as the culture medium. Human pancreatic adenocarcinoma BxPC-3, PSN-1, and HPAF-II were adjusted to 5000 cells/mL, 2000 cells/mL, and 5000 cells/mL, respectively, and seeded on 96-well plates at 100 μL/well and allowed to stand overnight in a CO2 incubator (37° C.).\n(§3) The ADCs, Dxd single agent, and MMAE single agent were each adjusted with a culture solution so that the final concentration (in terms of MMAE and Dxd) was 0.1, 0.3, 1, 3, 10, 30, 100 nM, or the like, and were added at 100 μL/well to a 96-well plate inoculated with each human pancreatic adenocarcinoma, and then allowed to stand in a CO2 incubator (37° C.) for 6 days. Then, the culture medium containing the drug was removed with an aspirator, and the number of viable cells was measured by Cell Counting Kit-8 (manufactured by Dojindo Laboratories) according to the attached protocol. The reaction time of the reagent was three hours, and the absorbance was measured by SpectraMax Paradigm (manufactured by Molecular Devices). FIGS. 1A to 1E show the results of the cell-killing effects."}, "[2]": {"tested_on": "human pancreatic adenocarcinoma cell line (PSN-1)", "assay": "Cell-killing effect on PSN-1", "format": "cell-based", "conditions": "read-out: IC50 values for PSN-1", "description": "as §1, §2, §3"}}, "note": "Where two headings read alike, the source gives them in different places. Where a SMILES comes first, the peptide text is derived from it. [ ]: non-standard residue; d: D form. The star is where a group is joined. Dolaproine = CO[C@@H]([C@@H]1CCCN1)[C@@H](C)C(=O)O; Dil = CC[C@H](C)[C@H](NC)[C@@H](CC(=O)O)OC; X1 = C[C@@H](N*)[C@@H](O)c1ccccc1; NMeV = CN[C@H](C(=O)O)C(C)C", "data": [{"smiles": "CC[C@@]1(O)C(=O)OCc2c1cc1n(c2=O)Cc2c-1nc1cc(F)c(C)c3c1c2[C@@H](NC(=O)CO)CC3", "note": "[Dxd]", "values": [{"measurement": "IC50", "setting": "[1]; Homo sapiens, BXPC-3, 144 h", "value": "2.58 ± 0.26", "unit": "nM"}, {"measurement": "IC50", "setting": "[2]; Homo sapiens, PSN1, 144 h", "value": "7.92 ± 0.84", "unit": "nM"}]}, {"smiles": "CC[C@H](C)[C@@H]([C@@H](CC(=O)N1CCC[C@H]1[C@H](OC)[C@@H](C)C(=O)N[C@H](C)[C@@H](O)c1ccccc1)OC)N(C)C(=O)[C@@H](NC(=O)[C@@H](NC)C(C)C)C(C)C", "note": "[MMAE, monomethyl auristatin E] (H-[NMeV]V[Dil][Dolaproine]-X1)", "values": [{"measurement": "IC50", "setting": "[1]; FIG. 1A, concentration in terms of MMAE and Dxd, 6 days, Cell Counting Kit-8", "value": "0.62 ± 0.04", "unit": "nM"}, {"measurement": "IC50", "setting": "[2]; FIG. 1B, concentration in terms of MMAE and Dxd, 6 days, Cell Counting Kit-8", "value": "0.73 ± 0.04", "unit": "nM"}]}]}
